Measurements taken from PubChem BioAssay AID2060893 (Molecular Pharmacology Branch, DTP, NCI, 2025).

Test system: K86415-001-R-J1-PDC complex spheroids, viability
Assay: Anticancer human tumor K86415-001-R-J1-PDC patient-derived lung adenocarcinoma cell line growth inhibition [RAS]
Conditions: for viability, T/C: stronger effect = lower value
Method in brief: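 Multi-cell-type spheroids: tumor cells plus HUVEC endothelial cells and mesenchymal stem cells. RAS-pathway inhibitors were combined with targeted agents, each dosed in half-log steps down from clinical Cmax, or from 10 microM when Cmax was unknown.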
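Note: spheroids exposed to agents for seven days before readout.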

Q: What does the source list for CCc1c2c(nc3ccc(O)cc13)-c1cc3c(c(=O)n1C2)COC(=O)[C@]3(O)CC + C#Cc1c(F)ccc2cc(O)cc(-c3ncc4c(N5CC6CCC(C5)N6)nc(OCC56CCCN5CC(F)C6)nc4c3F)c12?
A: IC50 (curve of first compound, second compound 0.0316 µM): 2.54 nM; IC50 (curve of first compound, second compound 0.1 µM): 2.62 nM; IC50 (curve of first compound, second compound 0.316 µM): 2.35 nM; IC50 (curve of first compound, second compound 1 µM): 1.79 nM; IC50 (curve of first compound, second compound 3.16 µM): < 0.949 nM; IC50 (curve of first compound, second compound 10 µM): < 0.949 nM; viability, T/C (second compound 0.0316 µM, first compound 0.000949 µM): 93.6%; viability, T/C (second compound 0.0316 µM, first compound 0.003 µM): 41.2%; viability, T/C (second compound 0.0316 µM, first compound 0.00949 µM): 21.4%; viability, T/C (second compound 0.0316 µM, first compound 0.03 µM): 17%; viability, T/C (second compound 0.0316 µM, first compound 0.0949 µM): 10.5%; viability, T/C (second compound 0.0316 µM, first compound 0.3 µM): 5.25%; viability, T/C (second compound 0.1 µM, first compound 0.000949 µM): 85%; viability, T/C (second compound 0.1 µM, first compound 0.003 µM): 44.7%; viability, T/C (second compound 0.1 µM, first compound 0.00949 µM): 24.1%; viability, T/C (second compound 0.1 µM, first compound 0.03 µM): 14%; viability, T/C (second compound 0.1 µM, first compound 0.0949 µM): 9.47%; viability, T/C (second compound 0.1 µM, first compound 0.3 µM): 5.05%; viability, T/C (second compound 0.316 µM, first compound 0.000949 µM): 80.7%; viability, T/C (second compound 0.316 µM, first compound 0.003 µM): 40.4%; viability, T/C (second compound 0.316 µM, first compound 0.00949 µM): 23.9%; viability, T/C (second compound 0.316 µM, first compound 0.03 µM): 15.6%; viability, T/C (second compound 0.316 µM, first compound 0.0949 µM): 11.5%; viability, T/C (second compound 0.316 µM, first compound 0.3 µM): 5.49%; viability, T/C (second compound 1 µM, first compound 0.000949 µM): 69.1%; viability, T/C (second compound 1 µM, first compound 0.003 µM): 34.6%; viability, T/C (second compound 1 µM, first compound 0.00949 µM): 17.2%; viability, T/C (second compound 1 µM, first compound 0.03 µM): 13.6%; viability, T/C (second compound 1 µM, first compound 0.0949 µM): 10.5%; viability, T/C (second compound 1 µM, first compound 0.3 µM): 6.31%; viability, T/C (second compound 3.16 µM, first compound 0.000949 µM): 46%; viability, T/C (second compound 3.16 µM, first compound 0.003 µM): 33.3%; viability, T/C (second compound 3.16 µM, first compound 0.00949 µM): 22.5%; viability, T/C (second compound 3.16 µM, first compound 0.03 µM): 15.5%; viability, T/C (second compound 3.16 µM, first compound 0.0949 µM): 13.9%; viability, T/C (second compound 3.16 µM, first compound 0.3 µM): 6.66%; viability, T/C (second compound 10 µM, first compound 0.000949 µM): 17%; viability, T/C (second compound 10 µM, first compound 0.003 µM): 12.8%; viability, T/C (second compound 10 µM, first compound 0.00949 µM): 16.1%; viability, T/C (second compound 10 µM, first compound 0.03 µM): 18.1%; viability, T/C (second compound 10 µM, first compound 0.0949 µM): 14.2%; viability, T/C (second compound 10 µM, first compound 0.3 µM): 6.63%

Q: CCN1CCN(Cc2ccc(Nc3ncc(F)c(-c4cc(F)c5nc(C)n(C(C)C)c5c4)n3)nc2)CC1 + CCn1c(-c2cc(N3CCN(C)CC3)cnc2C(C)OC)c2c3cc(ccc31)-c1csc(n1)CC(NC(=O)C1CC1C)C(=O)N1CCCC(N1)C(=O)OCC(C)(C)C2 was tested. Which IC50 (curve of first compound, second compound 0.000949 µM) did it give?
A: < 3.16 nM

Q: What about the IC50 (curve of first compound, second compound 0.003 µM) of the same molecule?
A: < 3.16 nM

Q: And the IC50 (curve of first compound, second compound 0.00949 µM)?
A: < 3.16 nM

Q: What about the IC50 (curve of first compound, second compound 0.03 µM) of the same molecule?
A: < 3.16 nM

Q: What about the IC50 (curve of first compound, second compound 0.0949 µM) of the same molecule?
A: < 3.16 nM

Q: What about the IC50 (curve of first compound, second compound 0.3 µM) of the same molecule?
A: < 3.16 nM

Q: And the viability, T/C (second compound 0.000949 µM, first compound 0.00316 µM)?
A: 47.9%

Q: And the viability, T/C (second compound 0.000949 µM, first compound 0.01 µM)?
A: 40.1%

Q: And the viability, T/C (second compound 0.000949 µM, first compound 0.0316 µM)?
A: 34.3%

Q: What about the viability, T/C (second compound 0.000949 µM, first compound 0.1 µM) of the same molecule?
A: 34.2%

Q: And the viability, T/C (second compound 0.000949 µM, first compound 0.316 µM)?
A: 35.9%

Q: What about the viability, T/C (second compound 0.000949 µM, first compound 1 µM) of the same molecule?
A: 40.8%

Q: What about the viability, T/C (second compound 0.003 µM, first compound 0.00316 µM) of the same molecule?
A: 21.5%

Q: What about the viability, T/C (second compound 0.003 µM, first compound 0.01 µM) of the same molecule?
A: 17.4%

Q: And the viability, T/C (second compound 0.003 µM, first compound 0.0316 µM)?
A: 17.5%

Q: What about the viability, T/C (second compound 0.003 µM, first compound 0.1 µM) of the same molecule?
A: 19.1%

Q: And the viability, T/C (second compound 0.003 µM, first compound 0.316 µM)?
A: 26.6%

Q: What about the viability, T/C (second compound 0.003 µM, first compound 1 µM) of the same molecule?
A: 23.5%

Q: What about the viability, T/C (second compound 0.00949 µM, first compound 0.00316 µM) of the same molecule?
A: 12.5%

Q: And the viability, T/C (second compound 0.00949 µM, first compound 0.01 µM)?
A: 10.9%

Q: What about the viability, T/C (second compound 0.00949 µM, first compound 0.0316 µM) of the same molecule?
A: 10.3%

Q: And the viability, T/C (second compound 0.00949 µM, first compound 0.1 µM)?
A: 11.9%

Q: And the viability, T/C (second compound 0.00949 µM, first compound 0.316 µM)?
A: 10.6%

Q: And the viability, T/C (second compound 0.00949 µM, first compound 1 µM)?
A: 8.22%

Q: And the viability, T/C (second compound 0.03 µM, first compound 0.00316 µM)?
A: 5.68%

Q: And the viability, T/C (second compound 0.03 µM, first compound 0.01 µM)?
A: 6.29%

Q: What about the viability, T/C (second compound 0.03 µM, first compound 0.0316 µM) of the same molecule?
A: 3.09%

Q: And the viability, T/C (second compound 0.03 µM, first compound 0.1 µM)?
A: 5.81%

Q: What about the viability, T/C (second compound 0.03 µM, first compound 0.316 µM) of the same molecule?
A: 4.33%

Q: And the viability, T/C (second compound 0.03 µM, first compound 1 µM)?
A: 3.19%

Q: And the viability, T/C (second compound 0.0949 µM, first compound 0.00316 µM)?
A: 3.17%

Q: What about the viability, T/C (second compound 0.0949 µM, first compound 0.01 µM) of the same molecule?
A: 3.79%

Q: And the viability, T/C (second compound 0.0949 µM, first compound 0.0316 µM)?
A: 3.86%

Q: What about the viability, T/C (second compound 0.0949 µM, first compound 0.1 µM) of the same molecule?
A: 3.09%

Q: And the viability, T/C (second compound 0.0949 µM, first compound 0.316 µM)?
A: 2.31%

Q: And the viability, T/C (second compound 0.0949 µM, first compound 1 µM)?
A: 1.64%

Q: What about the viability, T/C (second compound 0.3 µM, first compound 0.00316 µM) of the same molecule?
A: 2.92%

Q: What about the viability, T/C (second compound 0.3 µM, first compound 0.01 µM) of the same molecule?
A: 3.03%

Q: What about the viability, T/C (second compound 0.3 µM, first compound 0.0316 µM) of the same molecule?
A: 2.27%

Q: And the viability, T/C (second compound 0.3 µM, first compound 0.1 µM)?
A: 1.73%

Q: And the viability, T/C (second compound 0.3 µM, first compound 0.316 µM)?
A: 1.63%

Q: And the viability, T/C (second compound 0.3 µM, first compound 1 µM)?
A: 1.66%

Q: Which results are given for CCN1CCN(Cc2ccc(Nc3ncc(F)c(-c4cc(F)c5nc(C)n(C(C)C)c5c4)n3)nc2)CC1?
A: viability, T/C (compound 0.00316 µM): 97.9% [middle of 4 runs]; viability, T/C (compound 0.01 µM): 90.2% [middle of 4 runs]; viability, T/C (compound 0.0316 µM): 78.5% [middle of 4 runs]; viability, T/C (compound 0.1 µM): 71.3% [middle of 4 runs]; viability, T/C (compound 0.316 µM): 70.2% [middle of 4 runs]; viability, T/C (compound 1 µM): 71.4% [middle of 4 runs]; IC50 (curve of compound): > 1000 nM
